Patent US8802117B2 (Mavi Sud S.r.l., priority 2006, dated 2014)
Entries after “also recorded” stand apart in the source; their conditions may differ.

Experiments:
[1] = Overall in vitro and in vivo tests of tables 1-9 (fibroblast growth, ATP, collagen, IL-8, hydration, lipids, lipid peroxides, melanin); conditions: in association with melatonin, concentrations being equal
Protocol: Fibroblasts of NB1RGB strain were used (2×10^5 cell/ml) and suspended in the α-MEM culture medium placed in 10 Petri dishes (containing 10% foetal bovine serum (FBS), 100 units/ml penicillin and 100 µg/ml streptomycin). while two were left as control. All products were additioned in a 1 μg/ml concentration. All biochemical processes require energy that is accumulated in the form of ATP (adenosyn-triphosphate). […] Out of the 9 culture-containing Petri dishes used, 8 were additioned with 1% μg/ml of the different substances to be tested, whereas one served as control. A continuous and regular collagen synthesis is of fundamental importance for the ECM (extracellular matrix) structure, and therefore for skin elasticity and compactness and wrinkle reduction. Collagen 1 presence was verified with the use of specific antibodies on all ten cell cultures, 8 of which enriched with 1% μl/ml of the various substances directly introduced in the culture medium, and one as control. Collected blood aliquots, pre-supplemented and non-supplemented with the components under study (1 μl/ml) were subdivided into 10 Petri dishes, 8 of which were further supplemented with 10 μl/ml Tumor Necrose Factor a (TNF-α), and one left as control. […] IL-8 amounts were determined photometrically, by specific antibodies. […] During the checking, skin surface lipids and hydration were verified by 3C System. Lipid peroxides were checked with the Pugliesi method (Pugliesi P. (1990) Assessment of Antiaging Products. In: W.C. […] This experiment was meant to assess the protective activity of these compounds if and when taken orally. […] (International Units)/ml penicillin and […] streptomycin) containing 2 mM teophylline. The suspension was subdivided into 7 500-μl portions. To each portion, placed in suitable bars, […] of the various mixtures of active agents were added. Of each mixture 6 samples were prepared.

nerve cell cultures = experiment: Preliminary investigation of cell vitality and toxicity on nerve cell cultures (in vitro cellular models); type: cell-based
[2] = system: anagen phase of hair cycle; experiment: Action on the anagen phase of hair cycle: lotions A, B, C on the scalp of volunteers for 60 days; type: in vivo, human; conditions: topical lotion morning and evening
Text: Thirty volunteers (15 women and 15 men) suffering from general hair problems: slight thinning out, thinning, continual loss of hair and occasional formation of forms of alopecia restricted to scalp areas, were subjected to the treatment.
All subjects were given, under double-blind conditions, a lotion to be applied morning and evening by light friction, in the amount of 5/6 drops poured on the various areas and deemed sufficient for the treatment of the entire scalp.
The study lasted 60 days.
At day 0, an area of about 1 cm^2 was delimited in the anteroparietal zone of the scalp, from which hair was carefully removed. Removed hair were weighted to verify the mass thereof, and the number of follicles present was counted by a suitable grid.
At day +60, the number and weight of regrown hair were reassessed, again checking the number of follicles present.

Row | Compound | enhancement of melatonin action (synergy) [1] | also measured
1 | O=C(O)CCCCC1CCSS1 (stereo not drawn) [lipoic acid] | significantly enhance the bioprotective activity of melatonin; also recorded: further enhance the positive effects of melatonin; also recorded: tendentially more active than carotenoids | –
2 | COc1ccc2[nH]cc(CCNC(C)=O)c2c1 [melatonin] | – | toxicity / reduction of cell vitality (nerve cell cultures; increasing concentrations, 3-mg melatonin alone vs association of melatonin, carotenoid, immunostimulant each 11-mg): cell vitality tends to reduce; also recorded: far more toxic; cytoprotective action towards free radicals of Oxygen (ROS), cell vitality (nerve cell cultures; suitable concentrations, in vitro model): capable of preserving cell vitality; anagen phase of hair / hair regrowth [2]: causes an increase of the anagen phase of hair, thereby enhancing its regrowth; hair weight (volume, body) [2]: without however exerting an effect on the hair weight itself
3 | CC1=C[C@H](O)CC(C)(C)[C@H]1/C=C/C(C)=C/C=C/C(C)=C/C=C/C=C(C)/C=C/C=C(C)/C=C/C1=C(C)C[C@@H](O)CC1(C)C [lutein] | significantly enhance the bioprotective activity of melatonin; also recorded: further enhance the positive effects of melatonin | –
4 | CC1=NCC[C@@H](C(=O)O)N1 [ectoine] | significantly enhance the bioprotective activity of melatonin | –
5 | CC1=C(/C=C/C(C)=C/C=C/C(C)=C/C=C/C=C(C)/C=C/C=C(C)/C=C/C2=C(C)CCCC2(C)C)C(C)(C)CCC1 [beta-carotene] | significantly enhance the bioprotective activity of melatonin; also recorded: further enhance the positive effects of melatonin | –
6 | beta-glucan | significantly enhance the bioprotective activity of melatonin; also recorded: tendentially more active than ectoine | –
